Consider five compounds from patent publication US10285988B2, “Compounds for treatment of fibrosis diseases” (CUREGENIX, INC., priority 2013, dated 2019).

This experiment relates to WNT pathway. The experiment is described as follows: WNT pathway reporter gene assay (NIH3T3 TCF-Luc cells co-cultured with 293 WNT3a cells). To be noted: Mus musculus, co-culture 16 hours, luciferase luminescence reduced by 50%. The experiment is classed as cell-based. As for the experimental part: Materials and Methods: NIH3T3 mouse fibroblast cells (American Type Culture Collection, Manassas, Va.) were transfected with a plasmid containing a luciferase gene driven by 5 copies of TCF elements. Stale cells selected with 1 μg/mL of Zeocin (Gibco/Invitrogen, Carlsbad, Calif.) are cultured in Dulbecco's modified Eagle's medium (Invitrogen, Carlsbad, Calif.) supplemented with 10% FBS (Invitrogen), 50 unit/mL penicillin and 50 μg/mL of streptomycin (Invitrogen) at 37° C. with 5% CO2 in air atmosphere.
After 16 hours, the firefly luciferase activities are measured with the Steady-Glo™ Luciferase Assay System (Promega). The cells were treated with different concentrations of compounds of this invention during the co-culture. […] To normalize for cell quantity and viability, CellTiter Glo assay is next performed in a duplicate plate.
A general note: A reporter such as luciferase makes a cellular process visible.
By IC50 is commonly meant the concentration at which inhibition is half-maximal. Read a high IC50 as a need for much substance. In the case of `Cc1cc(-c2cc3ccnc(NCc4ccc(-c5ccnc(C)c5)c(C)c4)c3cn2)ccn1` [Compound 2, N-(3-methyl-4-(2-methylpyridin-4-yl)benzyl)-6-(2-methylpyridin-4-yl)-2,7-naphthyridin-1-amine], the IC50 was below 3 nM. The result for `Cc1cc(-c2ccc(CNc3nccc4cc(-c5ccnc(C)c5)ncc34)cc2)ccn1` [Compound 1, N-(4-(2-methylpyridin-4-yl)benzyl)-6-(2-methylpyridin-4-yl)-2,7-naphthyridin-1-amine] reads below 3 nM. In turn, `Cc1cc(-c2cc3ccnc(NCc4ccc(-c5ccnc(F)c5)c(F)c4)c3cn2)ccn1` [Compound 28] returned an IC50 below 3 nM.

The compound `Cc1cc(-c2ccc(CNc3nccc4cc(-c5cnccn5)ncc34)cc2)ccn1` [Compound 35] returned an IC50 below 3 nM. The value for `Cc1cc(-c2ncc(CNc3nccc4cc(-c5cnccn5)ccc34)cc2C)ccn1` [Compound 70] was below 3 nM.
